Data reported in ChEMBL document CHEMBL1649511, “Reduction of amphotericin B-induced renal tubular apoptosis by N-acetylcysteine” (2009).

How the values were obtained:
Format in all cases: functional
Set-up in all cases: scale not given: the % may be the effect or the level left
Details in all cases: route intraperitoneal
Rattus norvegicus [1] = test: Inhibition of amphotericin B-induced renal tubular apoptosis in Sprague-Dawley rat assessed as apoptotic index at 30 mg/kg, ip BID measured post last dose
Rattus norvegicus [2] = test: Inhibition of amphotericin B-induced renal tubular apoptosis in Sprague-Dawley rat assessed as apoptotic index at 120 mg/kg, ip BID measured post last dose
Rattus norvegicus [3] = test: Inhibition of amphotericin B-induced renal tubular apoptosis in Sprague-Dawley rat assessed as apoptotic index at 60 mg/kg, ip BID measured post last dose

Structure (SMILES): CC(=O)N[C@@H](CS)C(=O)O [ACETYLCYSTEINE]
- Activity (Rattus norvegicus [1]): 27.4%
- Activity (Rattus norvegicus [2]): 23.5%
- Activity (Rattus norvegicus [3]): 23.6%
